From patent US20110230476A1, “PI3 KINASE INHIBITORS AND USES THEREOF” (AVILA THERAPEUTICS, INC., priority 2009, published 2011) come the findings set out here.

T1 sequence (P42336 whole entry): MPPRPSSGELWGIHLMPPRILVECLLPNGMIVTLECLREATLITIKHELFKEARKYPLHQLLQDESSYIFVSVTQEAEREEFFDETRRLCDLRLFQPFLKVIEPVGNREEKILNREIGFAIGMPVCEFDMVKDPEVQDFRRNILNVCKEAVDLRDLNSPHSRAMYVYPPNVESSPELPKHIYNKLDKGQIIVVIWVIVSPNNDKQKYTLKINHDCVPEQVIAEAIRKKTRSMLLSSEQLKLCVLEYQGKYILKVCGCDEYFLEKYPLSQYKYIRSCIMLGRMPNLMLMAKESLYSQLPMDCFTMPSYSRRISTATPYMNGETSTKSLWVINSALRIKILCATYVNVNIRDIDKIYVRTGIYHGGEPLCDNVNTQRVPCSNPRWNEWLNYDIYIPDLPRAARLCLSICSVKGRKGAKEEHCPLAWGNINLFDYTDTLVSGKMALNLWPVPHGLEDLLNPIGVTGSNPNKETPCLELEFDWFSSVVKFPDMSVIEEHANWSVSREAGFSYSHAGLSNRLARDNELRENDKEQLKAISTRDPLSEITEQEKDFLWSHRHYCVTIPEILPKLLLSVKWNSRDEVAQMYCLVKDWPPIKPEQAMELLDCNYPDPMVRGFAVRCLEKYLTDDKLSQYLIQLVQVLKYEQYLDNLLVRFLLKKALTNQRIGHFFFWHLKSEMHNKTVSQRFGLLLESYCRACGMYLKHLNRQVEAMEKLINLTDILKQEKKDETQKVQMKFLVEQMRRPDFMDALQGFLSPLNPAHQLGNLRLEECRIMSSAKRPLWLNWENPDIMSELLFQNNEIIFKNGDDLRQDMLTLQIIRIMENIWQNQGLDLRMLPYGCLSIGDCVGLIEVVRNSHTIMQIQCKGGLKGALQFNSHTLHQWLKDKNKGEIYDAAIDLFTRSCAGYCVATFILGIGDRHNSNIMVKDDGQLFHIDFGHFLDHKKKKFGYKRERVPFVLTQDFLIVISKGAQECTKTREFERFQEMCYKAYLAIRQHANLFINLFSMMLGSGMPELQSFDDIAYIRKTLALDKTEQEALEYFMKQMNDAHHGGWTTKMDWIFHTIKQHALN
T1 sequence (P27986 whole entry partner): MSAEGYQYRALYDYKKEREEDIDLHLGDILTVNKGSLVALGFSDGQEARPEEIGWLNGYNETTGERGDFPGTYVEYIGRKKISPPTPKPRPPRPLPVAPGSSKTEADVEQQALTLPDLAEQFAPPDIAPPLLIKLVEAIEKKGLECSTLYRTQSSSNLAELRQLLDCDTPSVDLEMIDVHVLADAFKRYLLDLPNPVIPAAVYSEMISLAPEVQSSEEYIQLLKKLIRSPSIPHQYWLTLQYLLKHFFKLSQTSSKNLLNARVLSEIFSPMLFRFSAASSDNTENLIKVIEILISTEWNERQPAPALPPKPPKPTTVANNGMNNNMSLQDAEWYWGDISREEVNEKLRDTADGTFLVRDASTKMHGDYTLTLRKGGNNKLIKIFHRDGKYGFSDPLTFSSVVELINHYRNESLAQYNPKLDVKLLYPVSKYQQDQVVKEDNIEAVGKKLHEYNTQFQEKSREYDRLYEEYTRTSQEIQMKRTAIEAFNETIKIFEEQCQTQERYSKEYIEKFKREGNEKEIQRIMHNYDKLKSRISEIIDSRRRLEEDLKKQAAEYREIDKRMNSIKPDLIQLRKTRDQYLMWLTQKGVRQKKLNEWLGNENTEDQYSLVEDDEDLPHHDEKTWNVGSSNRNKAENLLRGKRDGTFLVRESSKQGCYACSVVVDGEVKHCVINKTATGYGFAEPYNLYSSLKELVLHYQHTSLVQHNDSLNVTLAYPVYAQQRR

The test has as its target T1, PI3Kα (p110α/p85α) (Homo sapiens, UniProt P42336).
T1 construct: purchased BPS Bioscience (San Diego, Calif.) or Millipore (Billerica, Mass.)
In words: HTRF assay, potency against active PI3Kα. It is filed as biochemical. The settings on record: HTRF; [ATP]=50 μM, [di-C8-PIP2]=10 μM; 30 min pre-incubation; read-out: PI3Kα Inhibition. The essentials: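 Active p110/p85α lipid kinase reactions were started with ATP and run 30-60 minutes at 25 °C, then stopped and developed with HTRF detection mix. HTRF ratio converted to % inhibition against ±enzyme controls; IC50 from log[inhibitor] vs response, variable slope.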
(In general: TR-FRET usually uses a lanthanide donor and a delayed reading to cut background.)
As for `CC(C)CC(=O)C(=O)N1CCN(c2ccc(-c3cc(-c4cnc(N)nc4)nc(N4CCOCC4)c3)cn2)CC1` [XII-29, 1-(4-(2′-(2-aminopyrimidin-5-yl)-6′-morpholino-3,4′-bipyridin-6-yl)piperazin-1-yl)-4-methylpentane-1,2-dione], the IC50 was 100 to 1000 nM. Then `C=CC(=O)Nc1ccc(OCc2cc3nc(-c4cnc(N)nc4)cc(N4CCOCC4)c3s2)cc1` [II-g-8, N-(4-((5-(2-aminopyrimidin-5-yl)-7-morpholinothieno[3,2-b]pyridin-2-yl)methoxy)phenyl)acrylamide], with 100 to 1000 nM; and `CC(C)=CC(=O)CCCC(=O)NCC#Cc1cc(-c2cnc(N)nc2)nc(N2CCOCC2)c1` [XII-20, N-(3-(2-(2-aminopyrimidin-5-yl)-6-morpholinopyridin-4-yl)prop-2-ynyl)-7-methyl-5-oxooct-6-enamide], with 100 to 1000 nM.

Regarding `C=CC(=O)N[C@H]1CC[C@@H](C(=O)N2CCN(Cc3cc4nc(-c5cccc6[nH]ncc56)nc(N5CCOCC5)c4s3)CC2)CC1` [II-a-99], the IC50 lay within 100 to 1000 nM. Take `C=CC(=O)N1CCC(O)(CCc2cc3nc(-c4cccc(O)c4)nc(N4CCOCC4)c3s2)CC1` [II-a-111, 1-(4-hydroxy-4-(2-(2-(3-hydroxyphenyl)-4-morpholinothieno[3,2-d]pyrimidin-6-yl)ethyl)piperidin-1-yl)prop-2-en-1-one]: the IC50 is 10 to 100 nM.

With `C=CC(=O)N1CCc2ccc(-c3cc4nc(-c5cccc(O)c5)nc(N5CCOCC5)c4s3)cc2C1` [II-a-106, 1-(7-(2-(3-hydroxyphenyl)-4-morpholinothieno[3,2-d]pyrimidin-6-yl)-3,4-dihydroisoquinolin-2(1H)-yl)prop-2-en-1-one], the IC50 lay within 10 to 100 nM. As to `C=CC(=O)Nc1ccc(C(=O)N2CC=C(c3cc4nc(-c5cnc(N)nc5)cc(C5=CCOCC5)c4s3)CC2)cc1` [II-g-5, N-(4-(4-(5-(2-aminopyrimidin-5-yl)-7-(3,6-dihydro-2H-pyran-4-yl)thieno[3,2-b]pyridin-2-yl)-1,2,3,6-tetrahydropyridine-1-carbonyl)phenyl)acrylamide], the IC50 was above 1000 nM.

Regarding `CC(C)=CC(=O)CCCC(=O)N1CC=C(c2cc3nc(-c4cnc(N)nc4)nc(N4CCOCC4)c3s2)CC1` [II-a-166, 1-(4-(2-(2-aminopyrimidin-5-yl)-4-morpholinothieno[3,2-d]pyrimidin-6-yl)-5,6-dihydropyridin-1(2H)-yl)-7-methyloct-6-ene-1,5-dione], the IC50 is below 10 nM. Then `CCC(=O)NC1CCN(c2ccc(-c3cc4nc(-c5cccc(O)c5)nc(N5CCOCC5)c4s3)cc2)CC1` [II^R-a-81, N-(1-(4-(2-(3-hydroxyphenyl)-4-morpholinothieno[3,2-d]pyrimidin-6-yl)phenyl)piperidin-4-yl)propionamide], with 100 to 1000 nM; and `C=CC(=O)Nc1ccc(CCNC(=O)c2cc3nc(-c4cccc5[nH]ncc45)nc(N4CC5(COC5)C4)c3s2)cc1` [II-a-151, N-(4-acrylamidophenethyl)-2-(1H-indazol-4-yl)-4-(2-oxa-6-azaspiro[3.3]heptan-6-yl)thieno[3,2-d]pyrimidine-6-carboxamide], with above 1000 nM.

With `CCC(=O)NCc1cccc(-c2cc3nc(-c4cccc(O)c4)nc(N4CCOCC4)c3s2)c1` [II^R-a-64, N-(3-(2-(3-hydroxyphenyl)-4-morpholinothieno[3,2-d]pyrimidin-6-yl)benzyl)propionamide], the IC50 lay in the range of 100 to 1000 nM. Consider `C=CC(=O)Nc1ccc(CCNC(=O)c2cc(-c3cnc(N)cc3C(F)(F)F)nc(N3CCOCC3)c2)cc1` [XII-11, N-(4-acrylamidophenethyl)-6′-amino-6-morpholino-4′-(trifluoromethyl)-2,3′-bipyridine-4-carboxamide], for which the IC50 is above 1000 nM.

Turning to `CC(C)=CC(=O)C(F)(F)C(F)(F)C(=O)N1CCN(Cc2cc3nc(-c4cccc5[nH]ncc45)nc(N4CCOCC4)c3s2)CC1` [II-a-157, 1-(4-((2-(1H-indazol-4-yl)-4-morpholinothieno[3,2-d]pyrimidin-6-yl)methyl)piperazin-1-yl)-2,2,3,3-tetrafluoro-6-methylhept-5-ene-1,4-dione], the IC50 is 100 to 1000 nM.
